According to publication PMC5309220, “Screening for Small Molecule Inhibitors of Statin-Induced APP C-terminal Toxic Fragment Production” (Frontiers in Pharmacology, 2017):
pIC50: −log10 of the molar value. “Also recorded” adds a separate entry of the source. Counter-ions that a name gives are not always drawn. Like-named read-outs stand apart in the source and are kept apart here.

Assays:
[1] = system: APPΔC31 production in CHO-7W cells; assay: Statin induction of APPΔC31, ELISA; format: cell-based, Chinese hamster; settings: 24 h
Method: An HRP-conjugated secondary antibody is then added and a colorimetric signal generated by enzymatic conversion of the tetramethylbenzidine (TMB) substrate. Protein levels were first determined using a colorimetric coomassie assay (Coomassie Plus, Thermo).
APPΔC31 was determined in cell lysates by ELISA.

in vitro = settings: Chinese hamster
caspase 8 = settings: potency stated for the inhibitor, no reference given; cited from earlier work
[2] = system: cerivastatin-induced APPΔC31 in CHO-7W cells; assay: APPΔC31 AlphaLISA dose-response, cerivastatin-induced; format: cell-based, Chinese hamster; settings: 24 h; for pIC50: Cricetulus griseus
Method: The APPΔC31 AlphaLISA assay (Figures 2C–E) was run directly in the plate with the cell lysate as described above in “AlphaLISA to detect APPΔC31.” APPΔC31 levels were measured using the Envision plate reader and data were normalized to DMSO (100% APPΔC31 production) and Q-VD-OPh (MP Biomedicals) pan-caspase inhibitor at 30 μM (0%); these controls were present on each plate. In addition, some compounds of interest were further analyzed in a dose-response curve to determine IC50 values.
The broad-spectrum pan-caspase inhibitor Q-VD-OPh served as the positive control.
Lysates were prepared and APPΔC31 determined by ELISA. (B) CHO-7W cells were treated with 10 μM cerivastatin plus increasing doses of caspase and MEK inhibitors for 24 h. Lysates were prepared and APPΔC31 determined by AlphaLISA. Click here for additional data file.

[3] = system: cerivastatin-induced APPΔC31 in I5 mouse hippocampal slice cultures; assay: Ex vivo organotypic hippocampal slice cultures, APPΔC31 ELISA; settings: 72 h, read-out: inhibition of APPΔC31 production
Excerpt: I5 mice originally purchased from Jackson labs (JAX B6.Cg-Tg(PDGFB-APP)5Lms/J) were bred and maintained in the Buck Institute vivarium facility, and used under the guidelines of an approved institutional IACUC protocol. P5–7 day mice were sacrificed using CO2 gas and cervical dislocation according to established IACUC protocols. Brains were removed, and under sterile conditions, hippocampi were dissected out on ice in Hybernate media + 1:400 Glutamax, 1:100 Pen/Strep and 1:50 B27 supplement (all Life Technologies). Hippocampi were laid parallel on a tissue chopper (McIlwain) in a small amount of media and sliced at 400 μm thick. Millicell-CM 6-well cell culture inserts (Millipore, 0.4 μm) were prehydrated by pipetting 750 μL culture media under each well and placing in a 35°C, 5% CO2 incubator for at least 30 min. Culture media: 100 mL MEM-HEPES, 50 mL HBSS, 50 mL HI horse serum, 1 mL 100x Pen/Strep (all Gibco), 1.3 g (6.5 mg/mL) glucose, and 2 mL 200 μM (2 mM) Glutamax, sterile filtered. […] Protein was quantitated for each sample using Coomassie Plus reagent (Thermo). […]
Tissue was harvested and lysates analyzed for APPΔC31 by ELISA. Lysates were protein normalized and expressed as a % of control.

sAPPα in CHO-7W cultures = assay: sAPPα ELISA in cell media; format: cell-based, Chinese hamster; settings: QVD, Sp, 3′F-Sp at 10, 30, and 30 mM, respectively (so in the source), with 10 μM cerivastatin, 24 h, vs CS alone, n = 2
Method: (§1) In an additional study (Supplementary Figure S5A), measurement of the α secretase fragment of full length (FL) APP – soluble APP alpha (sAPPα) – was performed using cell media by ELISA (IBL). Furthermore, in two studies (Supplementary Figures S5B,C), total protein levels in CHO-7W cell lysates were determined by Coomassie Plus protein assay (Pierce).
(§2) Supplementary file Data_Sheet_1.docx: FIGURE S5 Effect of lead compounds on protein concentration and sAPPα. […] (B) Total protein from lysates of CHO-7W cells treated with either 30 μM QVD or 10 μM Sp alone for 24 h was similar to the vehicle control (n = 1). (C) Total protein from CHO-7W lysates treated with 10 μM CS alone or in combination with QVD, Sp, or 3′F-Sp at the concentrations shown increased (n = 1). Statistical analysis was performed using one-way ANOVA and Dunnett post-test for comparison to the 10 μM CS control (^∗∗p < 0.001, ^∗∗∗p < 0.0001). Click here for additional data file.

[4] = system: cerivastatin-induced APPΔC31 production in CHO-7W cells; assay: APPΔC31 ELISA validation assay, cerivastatin-induced; format: cell-based, Chinese hamster; settings: 10 μM cerivastatin, 24 h; for APPΔC31 Inh. (mean %): CHO-7W cells, test concentration not given
Method: The APPΔC31 ELISA developed in partnership with Enzo Life Sciences (ADI-900-227) follows a standard sandwich ELISA design wherein a monoclonal N-terminal APP-specific antibody is used to coat the wells of the microtiter plate (capture antibody) and the anti-APPΔC31 cleavage site-specific polyclonal antibody serves as the detection antibody. An HRP-conjugated secondary antibody is then added and a colorimetric signal generated by enzymatic conversion of the tetramethylbenzidine (TMB) substrate. Protein levels were first determined using a colorimetric coomassie assay (Coomassie Plus, Thermo).
A subset of hits from our HTS was validated in a secondary assay. […] Thapsigargin also acts as a sarco/endoplasmic reticulum calcium ATPase (SERCA) inhibitor. Therefore, another SERCA inhibitor, 2,5-Di-tert-butylhydroquinone, was also added to the testing. In this secondary assay, CHO-7W cells were cultured as described above and plated into 24-well dishes at ∼200K/well. […] These hits were selected for their potency in primary screen, their structural features, their known activities, and availability of compound for additional testing. There were cerivastatin-only (negative control), + QVD-OPh (positive control), and for viability, vehicle-only (negative) controls. Cells were harvested by removing the media to a tube, adding […] trypsin to detach cells then neutralizing with media. […] Cells were centrifuged at 5000 rpm (2300 × g) for 5 min. Cell pellets were frozen until use. Forty μL cold RIPA buffer plus complete protease inhibitors (Roche) was added to each pellet and the pellets were reconstituted by pipetting up and down, incubating on ice for 30 min, vortexing, and centrifugation as above. Cell lysate supernatants were then assayed by APPΔC31 ELISA as described above. For most compounds, multiple/repeat studies were performed and two wells used for each condition. Statistical comparison was performed using one-way ANOVA for multiple comparisons, with a Dunnett post hoc test to compare each condition to the control. Further dose-response studies were performed on select compounds.

[5] = PAMPA / immobilized artificial membrane (IAM.PC.DD2) chromatography; format: in vitro ADME
Excerpt: Immobilized artificial membrane (IAM) chromatography such as PAMPA (parallel artificial membrane permeability assay) is used to predict a compound’s passive diffusion through membranes and may predict blood-brain barrier (BBB) penetrance.
To minimize variability between PAMPA assays for different compounds, the well-characterized, reliable IAM.PC.DD2 Regis Technologies analytical columns were used. In these 10 cm × 4.6 mm columns, the phospholipid is bonded on 10 μm, 300 Å, spherical aminopropyl silica and end capped with C10 and C3 amides.
Columns were connected to an Agilent high performance liquid chromatography system. […] The mobile phase was a mixture of water and methanol and a gradient was used for the elution of the compounds. The detector was set at 250 and 280 nm. After a compound was eluted, the retention time and void volume times were obtained from the chromatogram.
The IAM capacity factor (KIAM) was calculated using the equation: KIAM=tr−t0/t0 ; where tr is the
retention time of a compounds and t0 is the void volume time of the column. […] To predict the likelihood a compound would be BBB penetrant, we used the correlation described by [Yoon et al. (2006)]:
• (I) If KIAM/MW^4x10^10 > 0.85 the BBB penetration is predicted to be high • (II) If KIAM/MW^4x10^10 < 0.85 the BBB penetration is predicted to be low

CHO-7W cells = assay: Total protein in CHO-7W cell lysates (Coomassie Plus); format: cell-based, Chinese hamster; settings: n = 1; for effect on total protein concentration with cerivastatin (in words): QVD, spiperone, 3′fluorobenzylspiperone at 30, 10, and 10 μM, respectively, with 10 μM cerivastatin
Method: as §1, §2

[6] = system: cerivastatin-induced APPΔC31 in CHO-7W cells; assay: APPΔC31 immunoblot of CHO-7W cell lysates; format: cell-based, Chinese hamster; settings: compound at 30 μM, 10 μM cerivastatin, 24 h
Method: For immunoprecipitation, approximately 300 μg cell lysate supernatants were brought to 250 μL with cold RIPA + PI buffer in microfuge tubes. One μL of 6E10 APP antibody (Covance) was added and the mixture was rotated overnight in a cold room. The next day, 25 μL of protein A/G beads (Santa Cruz Biotech) were added and the samples were rotated for 1.5 h in the cold room. The beads were then centrifuged down and washed four times with cold PBS. Forty μL 1x LDS sample buffer + DTT was added to the pellets, which were heated to 70°C for 10 min, vortexed and centrifuged. Supernatants were loaded onto Nupage 4–12% Bis-Tris gels (Life Technologies) for electrophoresis and were then transferred to 0.2 μm PVDF membrane for immunoblotting with the anti-APPΔC31 antibody.
(A) CHO-7W cells were treated with 10 μM cerivastatin (CS) along with varying concentrations of Q-VD-OPh (QVD) for 24 h. Cell lysates were prepared and immunoprecipitated with anti-APP (6E10) overnight at 4°C and then incubation with Protein A/G beads (Santa Cruz Biotech). The resulting pellets were incubated, electrophoresed using Nupage 4–12% Bis-Tris gels (Life Technologies) and the 0.2 μm PVDF membrane probed with anti-APPΔC31. (B) CHO-7W cells were treated with increasing concentrations of CS or 10 μM CS together with increasing concentrations of 3′-fluorobenzylspiperone maleate (3′-F-Sp) or 30 μM QVD for 24 h. […]

[7] = AlphaLISA dose-response (Figure 5C), cerivastatin-stimulated

## COCc1c(C(C)C)nc(C(C)C)c(/C=C/[C@@H](O)C[C@@H](O)CC(=O)O)c1-c1ccc(F)cc1 [Cerivastatin]
[1]; statins at 1, 5 and 10 μM
  induction of APPΔC31 (in words): most effective; also recorded: did so at 1, 5, and 10 μM
In vitro
  viability at 24 h, 10 µM: 15%

## FC(F)(F)c1cccc(-c2csc(C3COc4ccccc4O3)n2)c1 (centres unmarked) [Caspase Inhibitor X]
Caspase 8
  pIC50: 5.57
[2]; highest concentration tested (30 μM), 10 μM cerivastatin, AlphaLISA
  inhibition of cerivastatin-induced APPΔC31 (in words): somewhat effective

## O=C(CCCN1CCC2(CC1)C(=O)N(Cc1cccc(F)c1)CN2c1ccccc1)c1ccc(F)cc1 [3′Fluorobenzylspiperone maleate, 3′-fluorobenzylspiperone maleate]
[3]
  inhibition at 30 µM: ~82%
sAPPα in CHO-7W cultures
  effect on sAPPα (in words): increased sAPPα
[4]
  APPΔC31 Inh. (mean %): 78%
[5]; IAM.PC.DD2 column, water/methanol gradient
  KIAM (IAM capacity factor): 3.2
[5]; IAM.PC.DD2 column, correlation of Yoon et al. (2006)
  KIAM/MW^4 x 10^10: 0.50
[5]; from KIAM/MW^4 x 10^10, cut-off 0.85
  BBB Penetration Prediction: low (If KIAM/MW^4x10^10 < 0.85 the BBB penetration is predicted to be low)
CHO-7W cells
  effect on total protein concentration with cerivastatin (in words): increased total protein concentration
[6]
  effect on CS-induced APPΔC31 by immunoblot (in words): decreased
[2]; [7]
  % Min (APPΔC31 dose-response): 25%
[2]; (A) AlphaLISA, cerivastatin-induced, read-out: IC50 (A), APPΔC31 inhibition
  pIC50: 5.66

## CC(C)C(NC(=O)c1ccc2ccccc2n1)C(=O)NC(CC(=O)O)C(=O)COc1c(F)cccc1F (centres unmarked) [QVD-OPh, Q-VD-OPh]
sAPPα in CHO-7W cultures
  effect on sAPPα (in words): increased sAPPα
[1]; 30 μM inhibitor plus 5 μM simvastatin
  effect on simvastatin-induced APPΔC31 increase (in words): prevented 5 μM simvastatin-induced APPΔC31 increases
[4]
  APPΔC31 Inh. (mean %): 95%
[4]; Cricetulus griseus, ELISA, CHO-7W, read-out: IC50 (E), APPΔC31 inhibition
  pIC50: 5.12
CHO-7W cells; QVD alone at 30 μM, spiperone alone at 10 μM, 24 h, vs vehicle
  effect on protein concentration in lysates, compound alone (in words): did not lower protein concentration
CHO-7W cells
  effect on total protein concentration with cerivastatin (in words): increased total protein concentration
[6]
  effect on CS-induced APPΔC31 by immunoblot (in words): eliminated the cerivastatin-induced APPΔC31 increase
[2]; [7]
  % Min (APPΔC31 dose-response): 0%
[2]; AlphaLISA dose-response (Figure 5C), cerivastatin-stimulated, read-out: IC50, APPΔC31 inhibition
  pIC50: 5.12
